ChEMBL document CHEMBL4184182, “Studies on interactions of carbazole derivatives with DNA, cell image, and cytotoxicity” (Bioorg Med Chem, 2018)
Values belong to the compound of their own block, whether it stands above or below them. Activity calls are given as the source filed them. The rule behind the calls is not given here.

Columns and labels:
[1] = system: dsDNA; experiment: Binding affinity to 26-mer duplex DNA (unknown origin) assessed as absorption maximum at 5 uM after 5 mins by fluorescence titration method (reference value: 405 nanometer); type: nucleic-acid assay
[2] = system: Quadruplex DNA; experiment: Binding affinity to Bcl2 G-quadruplex DNA (unknown origin) assessed as compound fluorescence life time at 5 uM after 5 mins by fluorescence titration method (reference value: 3.626 nanoseconds); type: nucleic-acid assay
[3] = system: dsDNA; experiment: Binding affinity to 26-mer duplex DNA (unknown origin) assessed as enhanced fluorescence ratio at 5 uM after 5 mins in presence of sodium ion by fluorescence titration assay relative to control; type: nucleic-acid assay
[4] = Drug uptake in DNase-1 treated human HepG2 cell nucleus at 10 uM after 2.5 hrs by confocal microscopic method; type: ADME, subcellular; conditions: hepg2, 2.5 h
[5] = system: Quadruplex DNA; experiment: Binding affinity to c-Kit G-quadruplex DNA (unknown origin) assessed as absorption maximum at 5 uM after 5 mins by fluorescence titration method (reference value: 405 nanometer); type: nucleic-acid assay
[6] = system: Quadruplex DNA; experiment: Binding affinity to Bcl2 G-quadruplex DNA (unknown origin) assessed as red shift at 15 uM after 5 mins by UV-Visible absorbance titration method; type: nucleic-acid assay
[7] = Drug uptake in human HepG2 cell cytoplasm at 10 uM after 2.5 hrs by confocal microscopic method; type: ADME, subcellular; conditions: hepg2, 2.5 h
[8] = system: Quadruplex DNA; experiment: Binding affinity to c-Myc G-quadruplex DNA (unknown origin) assessed as red shift at 15 uM after 5 mins by UV-Visible absorbance titration method; type: nucleic-acid assay
[9] = system: Quadruplex DNA; experiment: Binding affinity to c-Myc G-quadruplex DNA (unknown origin) assessed as hyperchromicity at 15 uM after 5 mins by UV-Visible absorbance titration method; type: nucleic-acid assay
[10] = system: Quadruplex DNA; experiment: Binding affinity to c-Kit G-quadruplex DNA (unknown origin) assessed as compound fluorescence life time at 5 uM after 5 mins by fluorescence titration method (reference value: 3.626 nanoseconds); type: nucleic-acid assay
[11] = system: HepG2; experiment: Induction of morphological changes in human HepG2 cells assessed as cellular clumping at 10 uM after 24 hrs; type: functional, cell-based
[12] = system: Quadruplex DNA; experiment: Binding affinity to human telomeric G-quadruplex DNA assessed as emission maximum at 5 uM after 5 mins in presence of sodium ion by fluorescence titration method (reference value: 559 nanometer); type: nucleic-acid assay
[13] = system: Quadruplex DNA; experiment: Binding affinity to c-Kit G-quadruplex DNA (unknown origin) assessed as enhanced fluorescence ratio at 5 uM after 5 mins by fluorescence titration assay relative to control; type: nucleic-acid assay
[14] = system: Quadruplex DNA; experiment: Binding affinity to human telomeric G-quadruplex DNA assessed as red shift at 15 uM after 5 mins in presence of potassium ion by UV-Visible absorbance titration method; type: nucleic-acid assay
[15] = system: dsDNA; experiment: Binding affinity to 26-mer duplex DNA (unknown origin) assessed as compound fluorescence life time at 5 uM after 5 mins by fluorescence titration method (reference value: 3.626 nanoseconds); type: nucleic-acid assay
[16] = system: dsDNA; experiment: Binding affinity to 26-mer duplex DNA (unknown origin) assessed as hyperchromicity at 15 uM after 5 mins by UV-Visible absorbance titration method; type: nucleic-acid assay
[17] = system: Quadruplex DNA; experiment: Binding affinity to human telomeric G-quadruplex DNA assessed as hyperchromicity at 15 uM after 5 mins in presence of potassium ion by UV-Visible absorbance titration method; type: nucleic-acid assay
[18] = system: Quadruplex DNA; experiment: Binding affinity to c-Myc G-quadruplex DNA (unknown origin) assessed as compound fluorescence life time at 5 uM after 5 mins by fluorescence titration method (reference value: 3.626 nanoseconds); type: nucleic-acid assay
[19] = system: Quadruplex DNA; experiment: Binding affinity to c-Myc G-quadruplex DNA (unknown origin) assessed as emission maximum at 5 uM after 5 mins by fluorescence titration method (reference value: 559 nanometer); type: nucleic-acid assay
[20] = system: Quadruplex DNA; experiment: Binding affinity to c-Kit G-quadruplex DNA (unknown origin) assessed as enhanced fluorescence time at 5 uM after 5 mins by fluorescence titration assay relative to control; type: nucleic-acid assay
[21] = system: Quadruplex DNA; experiment: Binding affinity to human telomeric G-quadruplex DNA assessed as enhanced fluorescence time at 5 uM after 5 mins in presence of potassium ion by fluorescence titration assay relative to control; type: nucleic-acid assay
[22] = system: Quadruplex DNA; experiment: Binding affinity to Bcl2 G-quadruplex DNA (unknown origin) assessed as emission maximum at 5 uM after 5 mins by fluorescence titration method (reference value: 559 nanometer); type: nucleic-acid assay
[23] = system: Quadruplex DNA; experiment: Binding affinity to human telomeric G-quadruplex DNA assessed as compound fluorescence life time at 5 uM after 5 mins in presence of potassium ion by fluorescence titration method (reference value: 3.626 nanoseconds); type: nucleic-acid assay
[24] = system: Quadruplex DNA; experiment: Binding affinity to Bcl2 G-quadruplex DNA (unknown origin) assessed as absorption maximum at 5 uM after 5 mins by fluorescence titration method (reference value: 405 nanometer); type: nucleic-acid assay
[25] = system: Calf thymus DNA; experiment: Binding affinity to calf thymus DNA assessed as red shift at 10 uM after 5 mins by UV-Visible absorbance titration method; type: nucleic-acid assay; conditions: Bos taurus
[26] = system: Quadruplex DNA; experiment: Binding affinity to c-Kit G-quadruplex DNA (unknown origin) assessed as red shift at 10 uM after 5 mins by UV-Visible absorbance titration method; type: nucleic-acid assay
[27] = system: dsDNA; experiment: Binding affinity to 26-mer duplex DNA (unknown origin) assessed as emission maximum at 5 uM after 5 mins by fluorescence titration method (reference value: 584 nanometer); type: nucleic-acid assay
[28] = Drug uptake in RNase-A treated human HepG2 cell nucleus at 3 uM after 30 mins by H33258.staining based confocal microscopic method; type: ADME, subcellular; conditions: hepg2, 0.5 h
[29] = system: Quadruplex DNA; experiment: Binding affinity to human telomeric G-quadruplex DNA assessed as absorption maximum at 5 uM after 5 mins in presence of potassium ion by fluorescence titration method (reference value: 453 nanometer); type: nucleic-acid assay
[30] = system: Calf thymus DNA; experiment: Binding affinity to calf thymus DNA assessed as hyperchromicity at 10 uM after 5 mins by UV-Visible absorbance titration method; type: nucleic-acid assay; conditions: Bos taurus
[31] = system: dsDNA; experiment: Binding affinity to 26-mer duplex DNA (unknown origin) assessed as red shift at 10 uM after 5 mins by UV-Visible absorbance titration method; type: nucleic-acid assay
[32] = system: Quadruplex DNA; experiment: Binding affinity to Bcl2 G-quadruplex DNA (unknown origin) assessed as compound fluorescence life time at 5 uM after 5 mins by fluorescence titration method (reference value: 0.192 nanoseconds); type: nucleic-acid assay
[33] = Drug uptake in RNase-A treated human HepG2 cell cytoplasm at 3 uM after 30 mins by H33258.staining based confocal microscopic method; type: ADME, subcellular; conditions: hepg2, 0.5 h
[34] = system: Quadruplex DNA; experiment: Binding affinity to c-Myc G-quadruplex DNA (unknown origin) assessed as hyperchromicity at 10 uM after 5 mins by UV-Visible absorbance titration method; type: nucleic-acid assay
[35] = system: dsDNA; experiment: Binding affinity to 26-mer duplex DNA (unknown origin) assessed as compound fluorescence life time at 5 uM after 5 mins by fluorescence titration method (reference value: 0.192 nanoseconds); type: nucleic-acid assay
[36] = system: Quadruplex DNA; experiment: Binding affinity to human telomeric G-quadruplex DNA assessed as compound fluorescence life time at 5 uM after 5 mins in presence of potassium ion by fluorescence titration method (reference value: 0.192 nanoseconds); type: nucleic-acid assay
[37] = system: Quadruplex DNA; experiment: Binding affinity to Bcl2 G-quadruplex DNA (unknown origin) assessed as red shift at 10 uM after 5 mins by UV-Visible absorbance titration method; type: nucleic-acid assay
[38] = system: Quadruplex DNA; experiment: Binding affinity to human telomeric G-quadruplex DNA assessed as absorption maximum at 5 uM after 5 mins in presence of sodium ion by fluorescence titration method (reference value: 453 nanometer); type: nucleic-acid assay

Activity [1]: 422 nm
Time [2]: 6.55 nanoseconds
Ratio [3]: > 6
Drug uptake [4]: Not Active
Activity [5]: 432 nm
Activity [6]: 29 nm
Drug uptake [7]: Active
Activity [8]: 25 nm
Activity [9]: 41.7%
Time [10]: 7.04 nanoseconds
Activity [12]: 545 nm
Ratio [13]: > 6
Activity [14]: 23 nm
Time [15]: 2.43 nanoseconds
Activity [16]: 27.7%
Activity [17]: 41.2%
Time [18]: 4.12 nanoseconds
Activity [19]: 547 nm
fold change (FC) [20]: 11.2 to 20.6
fold change (FC) [21]: 11.2 to 20.6
Activity [22]: 541 nm
Time [23]: 6.35 nanoseconds
Activity [24]: 434 nm
SMILES: CCn1c2ccccc2c2cc(/C=C(\C#N)c3ccc[n+](C)c3)ccc21.[I-]
Activity [11]: Active

Activity [25]: 24 nm
Activity [26]: 40 nm
Activity [27]: 568 nm
Drug uptake [28]: Active
Activity [29]: 474 nm
Activity [30]: 40.1%
Activity [31]: 17 nm
Time [32]: 2.17 nanoseconds
Drug uptake [33]: Active
Activity [34]: 55.6%
Time [35]: 2.69 nanoseconds
Time [36]: 2.09 nanoseconds
Activity [37]: 47 nm
Activity [38]: 477 nm
SMILES: CCn1c2ccccc2c2cc(/C=C/c3sc4ccccc4[n+]3CC)ccc21.[I-]
